Patent US8987195B2 (priority 2012, dated 2015)
Where two headings read alike, the source gives them in different places.

What was measured:
HCV genotype 1b replicon = assay: HCV replicon assay, genotype 1b replicon EC50; assay type: cell-based, Hepatitis C virus; details: Hepatitis C virus, HCV replicon, genotype 1b, read-out: EC50 [gt-1b]
Summary of the method: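 Stable neomycin-selected genotype 1b replicon cells, some carrying luciferase:Neo^r fusion, plated without G418 with a compound dilution series and incubated 24-48 h. Read-out was RNA (^32P-probe protection or TaqMan, normalized to cyclophilin A) or luciferase activity. EC50 from four-parameter fit as percent of DMSO control.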

[1] = molecular target: HCV NS3/4A protease genotype 3a (Hepatitis C virus genotype 3a, UniProt Q81495); assay: HCV NS3/4A protease time-resolved fluorescence (TRF) assay, Ki against genotype 3a; assay type: biochemical
Method: (§1) Measuring NS3/4A Inhibitory Activity (Ki) Against Genotype 1b, Against A156T Mutants and Against Genotype 3a
(§2) One assay for measuring inhibitory activity is HCV NS3 protease time-resolved fluorescence (TRF) assay as described below and in Mao et al., Anal. Biochem. 373:1-8, 2008 and International Patent Application Publication WO 2006/102087. A NS3 protease assay can be performed, for example, in a final volume of 20 μl assay buffer containing 50 mM HEPES, pH 7.5, 150 mM NaCl, 15% glycerol, 0.15% TRITON X-100, 10 mM DTT, and 0.1% PEG 8000. NS3 and NS4A protease is pre-incubated with various concentrations of inhibitors in DMSO for 30 min. The reaction is initiated by adding the TRF peptide substrate (final concentration 25 nM). NS3 mediated hydrolysis of the substrate was run for 2.5 hours at room temperature. Product fluorescence is detected using A Pherastar Plus plate reader (BMG) or Envision (Perkin Elmer Life and Analytical Sciences with excitation at 340 nm and emission at 615 nm using the appropriate delay time optimized for the europium fluorescence probe. Testing concentrations of different enzyme forms are selected to result in a signal to background ratio (S/B) of 10-30. IC50 values are derived using a standard four-parameter fit to the data. Ki values are derived from IC50 values using the following formula, IC50=Ki(1+[S]/KM), Eqn (1), where [S] is the concentration of substrate peptide in the reaction and KM is the Michaelis constant. See P. Gallinari et al., 38 BIOCHEM. 5620-32 (1999); P. Gallinari et al., 72 J. VIROL. 6758-69 (1998); M. Taliani et al., 240 ANAL. BIOCHEM. 60-67 (1996); Mao et al., Analytical Biochemistry 373: 1-8, 2008.
(§3) The assay described above was run against genotype 1b at a concentration of 0.2 nM, against A156T mutant strains at a concentration of 0.4 nM, and against genotype 3a at a concentration of 0.025 nM.

[2] = molecular target: HCV NS3/4A protease genotype 1b (Hepatitis C virus genotype 1b, UniProt P26663); assay: HCV NS3/4A protease time-resolved fluorescence (TRF) assay, Ki against genotype 1b; assay type: biochemical; details: IC50 [gt-1b], NS3/4A protease TRF assay, genotype 1b enzyme 0.2 nM
Summary of the method: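 First, protease (genotype 1b 0.2 nM, A156T 0.4 nM, genotype 3a 0.025 nM) is preincubated 30 min with inhibitor. Next, 25 nM TRF substrate starts the reaction, run 2.5 h at room temperature. Finally, europium fluorescence is read and Ki calculated from IC50.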

[3] = molecular target: HCV NS3/4A protease A156T mutant (Hepatitis C virus genotype 1b, UniProt P26663, A1182T); assay: HCV NS3/4A protease time-resolved fluorescence (TRF) assay, Ki against A156T mutant; assay type: biochemical; details: NS3/4A protease TRF assay, A156T mutant enzyme 0.4 nM, read-out: IC50 [gt-1b A156T]
Method: as §1, §2, §3

SMILES: CC(C)(C)COC(=O)N[C@H]1CCCCC/C=C\[C@@H]2C[C@@]2(C(=O)NS(=O)(=O)C2(C)CC2)NC(=O)[C@@H]2C[C@]3(CCc4c(c(C(F)F)nc5ccc(Cl)cc45)O3)CN2C1=O [Example 369, 2,2-dimethylpropyl [(2R,6S,12Z,13aS,14aR,16aS)-9′-chloro-5′-(difluoromethyl)-14a-{[(1-methylcyclopropyl)sulfonyl]carbamoyl}-5,16-dioxo-1,1′,2′,5,6,7,8,9,10,11,13a,14,14a,15,16,16a-hexadecahydrospiro[cyclopropa[e]pyrrolo[1,2-a][1,4]diazacyclopentadecine-2,3′-pyrano[2,3-c]quinolin]-6-yl]carbamate]
- EC50 (HCV genotype 1b replicon): 15.1 nM
- IC50 [1]: 1.18 nM
- IC50 [2]: 0.018 nM
- IC50 [3]: 1.16 nM

SMILES: COc1ccc2nc(C)c3c(c2c1)[C@H](F)C[C@]1(C[C@H]2C(=O)N[C@]4(C(=O)NS(=O)(=O)C5(C)CC5)C[C@H]4/C=C\CCCCC[C@H](NC(=O)OCC(C)(C)F)C(=O)N2C1)O3 [Example 370, 2-fluoro-2-methylpropyl [(1′R,2S,6S,12Z,13aS,14aR,16aS)-1′-fluoro-9′-methoxy-5′-methyl-14a-{[(1-methylcyclopropyl)sulfonyl]carbamoyl}-5,16-dioxo-1,1′,2′,5,6,7,8,9,10,11,13a,14,14a,15,16,16a-hexadecahydrospiro[cyclopropa[e]pyrrolo[1,2-a][1,4]diazacyclopentadecine-2,3′-pyrano[2,3-c]quinolin]-6-yl]carbamate]
- EC50 (HCV genotype 1b replicon; K+ salt): 8.56 nM
- IC50 [1]: 0.149 nM
- IC50 ([2]; K+ salt): 0.009 nM
- IC50 ([3]; K+ salt): 0.037 nM

SMILES: COc1ccc2nc(C(F)(F)F)c3c(c2c1)CC[C@]1(C[C@H]2C(=O)N[C@]4(C(=O)NS(=O)(=O)C5(C)CC5)C[C@H]4/C=C\CCCCC[C@H](NC(=O)OCC(C)(C)C)C(=O)N2C1)O3 [Example 382, 2,2-dimethylpropyl [(2R,6S,12Z,13aS,14aR,16aS)-9′-methoxy-14a-{[(1-methylcyclopropyl)sulfonyl]carbamoyl}-5,16-dioxo-5′-(trifluoromethyl)-1,1′,2′,5,6,7,8,9,10,11,13a,14,14a,15,16,16a-hexadecahydrospiro[cyclopropa[e]pyrrolo[1,2-a][1,4]diazacyclopentadecine-2,3′-pyrano[2,3-c]quinolin]-6-yl]carbamate]
- EC50 (HCV genotype 1b replicon; K+ salt): 3.61 nM
- IC50 [1]: 1.09 nM
- IC50 ([2]; K+ salt): 0.028 nM
- IC50 ([3]; K+ salt): 2.34 nM

SMILES: COc1ccc2nc(C(F)(F)F)c3c(c2c1)CC[C@]1(C[C@H]2C(=O)N[C@]4(C(=O)NS(=O)(=O)C5(C)CC5)C[C@H]4/C=C\CCCCC[C@H](NC(=O)OC4(C)CCC4)C(=O)N2C1)O3 [Example 451, 1-methylcyclobutyl [(2R,6S,12Z,13aS,14aR,16aS)-9′-methoxy-14a-{[(1-methylcyclopropyl)sulfonyl]carbamoyl}-5,16-dioxo-5′-(trifluoromethyl)-1,1′,2′,5,6,7,8,9,10,11,13a,14,14a,15,16,16a-hexadecahydrospiro[cyclopropa[e]pyrrolo[1,2-a][1,4]diazacyclopentadecine-2,3′-pyrano[2,3-c]quinolin]-6-yl]carbamate]
- EC50 (HCV genotype 1b replicon): 1.86 nM
- IC50 [1]: 0.504 nM
- IC50 [2]: 0.006 nM
- IC50 [3]: 0.338 nM

SMILES: CC[C@@H](C)OC(=O)N[C@H]1CCCCC/C=C\[C@@H]2C[C@@]2(C(=O)NS(=O)(=O)C2(C)CC2)NC(=O)[C@@H]2C[C@]3(CCc4c(c(C(F)(F)F)nc5ccc(OC)cc45)O3)CN2C1=O [Example 459, (2R)-butan-2-yl [(2R,6S,12Z,13aS,14aR,16aS)-9′-methoxy-14a-{[(1-methylcyclopropyl)sulfonyl]carbamoyl}-5,16-dioxo-5′-(trifluoromethyl)-1,1′,2′,5,6,7,8,9,10,11,13a,14,14a,15,16,16a-hexadecahydrospiro[cyclopropa[e]pyrrolo[1,2-a][1,4]diazacyclopentadecine-2,3′-pyrano[2,3-c]quinolin]-6-yl]carbamate]
- EC50 (HCV genotype 1b replicon; K+ salt): 4.4 nM
- IC50 [1]: 2.31 nM
- IC50 ([2]; K+ salt): 0.049 nM
- IC50 ([3]; K+ salt): 2.65 nM

SMILES: CC[C@H](C)OC(=O)N[C@H]1CCCCC/C=C\[C@@H]2C[C@@]2(C(=O)NS(=O)(=O)C2(C)CC2)NC(=O)[C@@H]2C[C@]3(CCc4c(c(C(F)(F)F)nc5ccc(OC)cc45)O3)CN2C1=O [Example 460, (2S)-butan-2-yl [(2R,6S,12Z,13aS,14aR,16aS)-9′-methoxy-14a-{[(1-methylcyclopropyl)sulfonyl]carbamoyl}-5,16-dioxo-5′-(trifluoromethyl)-1,1′,2′,5,6,7,8,9,10,11,13a,14,14a,15,16,16a-hexadecahydrospiro[cyclopropa[e]pyrrolo[1,2-a][1,4]diazacyclopentadecine-2,3′-pyrano[2,3-c]quinolin]-6-yl]carbamate]
- EC50 (HCV genotype 1b replicon; K+ salt): 2.99 nM
- IC50 [1]: 1.78 nM
- IC50 ([2]; K+ salt): 0.034 nM
- IC50 ([3]; K+ salt): 2.74 nM

SMILES: COc1ccc2nc(C(F)(F)F)c3c(c2c1)[C@H](F)C[C@]1(C[C@H]2C(=O)N[C@]4(C(=O)NS(=O)(=O)C5(C)CC5)C[C@H]4/C=C\CCCCC[C@H](NC(=O)OCC(C)C)C(=O)N2C1)O3 [Example 461, 2-methylpropyl [(1′R,2S,6S,12Z,13aS,14aR,16aS)-1′-fluoro-9′-methoxy-14a-{[(1-methylcyclopropyl)sulfonyl]carbamoyl}-5,16-dioxo-5′-(trifluoromethyl)-1,1′,2′,5,6,7,8,9,10,11,13a,14,14a,15,16,16a-hexadecahydrospiro[cyclopropa[e]pyrrolo[1,2-a][1,4]diazacyclopentadecine-2,3′-pyrano[2,3-c]quinolin]-6-yl]carbamate]
- EC50 (HCV genotype 1b replicon): 3.29 nM
- IC50 [1]: 0.624 nM
- IC50 [2]: 0.029 nM
- IC50 [3]: 0.435 nM

SMILES: COc1ccc2nc(C(F)(F)F)c3c(c2c1)CC[C@]1(C[C@H]2C(=O)N[C@]4(C(=O)NS(=O)(=O)C5(C)CC5)C[C@H]4/C=C\CCCCC[C@H](NC(=O)OC4CCOC4)C(=O)N2C1)O3 (stereo partly drawn) [Example 481, tetrahydrofuran-3-yl [(2R,6S,12Z,13aS,14aR,16aS)-9′-methoxy-14a-{[(1-methylcyclopropyl)sulfonyl]carbamoyl}-5,16-dioxo-5′-(trifluoromethyl)-1,1′,2′,5,6,7,8,9,10,11,13a,14,14a,15,16,16a-hexadecahydrospiro[cyclopropa[e]pyrrolo[1,2-a][1,4]diazacyclopentadecine-2,3′-pyrano[2,3-c]quinolin]-6-yl]carbamate]
- EC50 (HCV genotype 1b replicon; K+ salt): 1.31 nM
- IC50 [1]: 0.225 nM
- IC50 ([2]; K+ salt): 0.006 nM
- IC50 ([3]; K+ salt): 0.436 nM

SMILES: CCc1nc2ccc(OC)cc2c2c1O[C@]1(CC2)C[C@H]2C(=O)N[C@]3(C(=O)NS(=O)(=O)C4(C)CC4)C[C@H]3/C=C\CCCCC[C@H](NC(=O)c3cn[nH]c3)C(=O)N2C1 [Example 482, (2R,6S,12Z,13aS,14aR,16aS)-5′-ethyl-9′-methoxy-N-[(1-methylcyclopropyl)sulfonyl]-5,16-dioxo-6-[(1H-pyrazol-4-ylcarbonyl)amino]-1,1′,2′,6,7,8,9,10,11,13a,14,15,16,16a-tetradecahydrospiro[cyclopropa[e]pyrrolo[1,2-a][1,4]diazacyclopentadecine-2,3′-pyrano[2,3-c]quinoline]-14a(5H)-carboxamide]
- EC50 (HCV genotype 1b replicon): 68.6 nM
- IC50 [1]: 0.418 nM
- IC50 [2]: 0.008 nM
- IC50 [3]: 0.101 nM
